# Results published in US10526634B2, “Cell line for screening influenza virus polymerase assembly inhibitor and construction method thereof” (Suzhou Institute of Systems Medicine, priority 2015, dated 2020).
# System: PA/PB1 HEK293T (Teton) cell line
# Experiment: Dox-controlled inducible PA/PB1 expression, luciferase activity and Western blotting
# Type: cell-based
# Conditions: Dox 300 ng/mL, 16 h, PA/PB1 HEK293T (Teton) cells
# Experimental: To detect the influence of Doxycycline (Dox) (purchased from Sigma) on controlled inducible PA/PB1 expression, 100,000 PA/PB1 HEK293T (Teton) cells and 300 μL DMEM complete medium were plated in each well of a 48 well plate. After 24 h, Dox was added at concentrations of 0, 10, 30, 100, 300 ng/mL respectively. After 16 h, culture medium in supernatant was removed, and lysis was performed on ice for 10 min using 80 μL renilla luciferase lysate (purchased from Promega, E2820), lysate was mixed by pipetting, 50 μL cell lysate was transferred into a plate for luciferase detection (purchased from PE), 20 μL renilla luciferase substrate (purchased from Promega, E2820) was added into each well, and luciferase activity was detected by a microplate reader (purchased from Bio-Tek, SynergyH1). The remaining 30 μL lysate was used for immune blotting (Western Blotting), the primary antibody used was Anti-Gluc (purchased from NEB), the secondary antibody used was HRP-conjugated Donkey Anti-Rabbit (purchased from Jackson), and expression of PA/PB1 with Gluc fusion tag could be detected by a scanner (purchased from Bio-rad).
# When Dox was not added into the PA/PB1 HEK293T (Teton) cell line, luciferase activity of PA/PB1 interaction was the background. […] When Dox was added at a concentration of 300 ng/mL, the difference between its signal value and the background signal value was up to 200 times.
smiles,measurement,value
"C[C@H]1c2cccc(O)c2C(=O)C2=C(O)[C@]3(O)C(=O)C(C(N)=O)=C(O)[C@@H](N(C)C)[C@@H]3[C@@H](O)[C@@H]21 [Dox, Doxycycline]",difference between signal value and background signal value (luciferase activity of PA/PB1 interaction),up to 200 times
